# Data from patent US11472843B2, “Malacidins and methods of use” (The Rockefeller University, priority 2017, dated 2022).
# How the values were obtained:
# [1] = system: S. aureus NRS140; assay: MIC assay, S. aureus NRS140; format: cell-based, Staphylococcus aureus; settings: β-lactams
# Protocol: (§1) MIC assays were performed in duplicate in 96-well microtiter plates on the basis of the protocol recommended by the Clinical and Laboratory Standards Institute (Cockerill, 2012, Clinical and Laboratory Standards Institute). All presented data are the average of at least three independent assays. Stock solutions of malacidin or daptomycin (2 mg ml^−1 in H2O) were added to the first well in a row and serially diluted (twofold per transfer) across the microtiter plate. CaCl2 was supplemented to media at a final concentration of 15 mM and fetal bovine serum (ATCC) was added to media (1:10) to test the effect of serum. Overnight cultures of bacteria were diluted 5,000-fold, and 50 μl was used as an inoculum in each well. MIC values were determined by visual inspection after 18 h incubation (30° C., static growth). For the enhanced calcium titration experiments, standard MIC assays were performed with methicillin-resistant Staphylococcus aureus (MRSA) PFGE strain type USA300 in media supplemented with CaCl2 at: 25.0, 18.8, 14.1, 7.03, 3.52, 2.50, 1.76, 0.880, 0.440, 0.250 and 0 mM. To assess the effects of monovalent and divalent cations on malacidin activity, standard MIC assays were performed with MRSA USA300 in media supplemented with 15 mM CaCl2, MgCl2, MnCl2, ZnCl2, SrCl2, NaCl and KCl. To evaluate the effects of pulmonary surfactants on activity against a community-acquired pneumonia-causing pathogen, standard MIC assays were performed with Streptococcus pneumoniae TCH8431 in media supplemented with both 15 mM CaCl1 and Survanta (beractant) at a final concentration of 5, 1, 0.5, 0.25 or 0% (volume/volume (v/v) percent).
# [2] = system: S. aureus NRS108; assay: MIC assay, S. aureus NRS108; format: cell-based, Staphylococcus aureus; settings: β-lactams
# Protocol: as §1
# [3] = system: S. aureus BAA-42; assay: MIC assay, S. aureus BAA-42; format: cell-based, Staphylococcus aureus; settings: β-lactams
# Protocol: as §1
# [4] = Complex formation with cell wall precursors (TLC mobility shift), C55-P; format: binding; settings: 1 nmol precursor, 0.5 nmol antibiotic
# Protocol: Binding of malacidin to C55-P and lipid II was evaluated by incubating 1 nmol of each purified precursor with 0.5 nmol of malacidin or daptomycin in 100 mM Tris-HCl, pH 7.5, 0.1% Triton X-100, 13 mM MgCl2, and with or without 25 mM CaCl2, for 60 min at 37° C. Subsequently, the mixture was extracted twice with n-BuOH/6 M pyridinium acetate buffer, pH 4.2 (3:1, v/v). The butanol fraction was evaporated and the residue was dissolved in CHCl3/methanol (1:1, v/v). The resuspension was analysed for the loss of unbound malacidin or daptomycin to a complex by TLC analysis using chloroform/methanol/water/ammonia (88:48:10:1, v/v/v/v) as the solvent and detection by 254/366 nm visualization. Experiments were performed with biological replicates.
# [5] = system: Klebsiella pneumonia ATCC 10031; assay: MIC assay, Klebsiella pneumonia; format: cell-based
# Protocol: as §1
# [6] = system: MRSA USA300; assay: Selection for malacidin-resistant mutants; format: cell-based, Staphylococcus aureus; settings: 20 days of exposure to 0.5×MIC, 15 mM calcium
# Protocol: To select for resistant mutants, a single MRSA USA300 colony from a freshly struck plate was inoculated into LB media and grown overnight at 37° C. The saturated overnight culture was diluted 100-fold, supplemented with a sub-lethal dose (0.5×MIC) of malacidin A, vancomycin, daptomycin or rifamycin and 15 mM calcium. Two-hundred-microlitre aliquots were then distributed into microtiter plate wells. The next day, 3 μl of culture from each well was used to inoculate 200 μl of calcium-supplemented media (15 mM calcium) with fresh antibiotic at 0.5× and 4×MIC. This process was repeated for 20 days. […] This was repeated over the course of the experiment to assess fold change in MIC at day 0 to day 20.
# [7] = system: E. faecium Com15; assay: MIC assay, E. faecium Com15; format: cell-based, Enterococcus faecium
# Protocol: as §1
# [8] = system: MRC5 cells; format: cell-based, human
# Protocol: (§2) Cytotoxicity against human cell lines was tested using an ATP release assay, CelITiter-Glo (Promega), according to the manufacturer's instructions. HEK293 cells (293FT, Thermo Fisher Scientific, no. R700-07) and MRC5 cells (ATCC CCL-171) were grown in complete DMEM media supplemented with 10% FBS, and were inspected visually for authentication and tested for mycoplasma contamination using a MycoAlert detection kit (Lonza). Cells were grown to confluence, trypsinized, counted and plated in 384-well cell culture plates at an appropriate density (2,500 cells per well for HEK293 and 1000 cells per well for MRC5). The test compound was added 24 h later in the presence of calcium, and viability was determined after 4.5 h of incubation. Experiments were performed with biological replicates. Haemolytic activity was evaluated by a red blood cell disc diffusion assay. Twenty-microlitre stocks of malacidin A and Triton X-100 were infused on filter discs, dried completely and then overlaid on 5% sheep blood agar plates (Hardy Diagnostics). The plates were incubated for 24 h at 20° C., and then checked for lysis.
# [9] = system: HEK293 cells; format: cell-based, human; settings: viability, in the presence of calcium, 4.5 h
# Protocol: as §2
# [10] = system: Cryptococcus neoformans ATCC 32045; assay: MIC assay, C. neoformans; format: cell-based
# Protocol: as §1
# [11] = system: Acinetobacter baumannii ATCC 17978; assay: MIC assay, A. baumannii; format: cell-based; settings: range of at least three independent experiments
# Protocol: as §1
# [12] = system: S. aureus USA300; assay: MIC assay, S. aureus USA300 (MRSA); format: cell-based, Staphylococcus aureus
# Protocol: as §1
# [13] = system: Lactobacillus rhamnosus NCTC 13031; assay: MIC assay, L. rhamnosus; format: cell-based
# Protocol: as §1, with “To evaluate the effects of pulmonary surfactants on activity against a community-acquired pneumonia-causing pathogen, standard MIC assays were performed with Streptococcus pneumoniae TCH8431 in media supplemented with both 15 mM CaCl1 and Survanta (beractant) at a final concentration of 5, 1, 0.5, 0.25 or 0% (volume/volume (v/v) percent).” left out
# [14] = system: S. aureus NRS146; assay: MIC assay, S. aureus NRS146; format: cell-based, Staphylococcus aureus; settings: β-lactams
# Protocol: as §1
substance,measurement,setting,value
malacidin A,MIC,"[1]; S. aureus NRS140, erythromycin, spectinomycin, 15 mM CaCl2",0.4-0.8 μg m1^−1
same,MIC,"[1]; Staphylococcus aureus NRS140, Erythromycin, Spectinomycin",0.4 to 2.0 µg/mL
same,MIC,"[2]; S. aureus NRS 108, gentamicin, kanamycin, 15 mM CaCl2",0.2-0.8 μg m1^−1
same,MIC,"[2]; Staphylococcus aureus NRS108, Gentamicin, Kanamycin",0.2 to 0.8 µg/mL
same,MIC,"[3]; S. aureus BAA-42, 15 mM CaCl2",0.2-0.8 μg m1^−1
same,MIC,[3]; Staphylococcus aureus BAA-42,0.2 to 0.8 µg/mL
same,Sequestration of C55-P (TLC mobility shift),[4],did not sequester C55-P
same,MIC,[5],>100 µg/mL
same,Detection of resistant S. aureus after repeated exposure,[6],not detected
same,MIC,"[7]; E. faecium Com15, 15 mM CaCl2",0.8-2.0 μg m1^−1
same,MIC,[7]; Enterococcus faecium Com15,0.8 to 2.0 µg/mL
same,MIC (a = Viability assessed by ATP release assay),[8],>100a μg mL^−1
same,IC50,"[8]; MRC5, viability, in the presence of calcium, 4.5 h",>100 μg m1^−1
same,IC50,[9],>100 μg m1^−1
same,MIC,"[10]; C. neoformans, 15 mM CaCl2",>100 μg m1^−1
same,MIC,[10]; Cryptococcus neoformans ATCC 32045,>100 µg/mL
same,MIC,[11],>100 µg/mL
same,Dependence of antibiosis (MIC) against MRSA on calcium,"[12]; MRSA USA300, CaCl2 0 to 25.0 mM",calcium-dependent
same,MIC,"[12]; S. aureus USA300 + 10% serum, 15 mM CaCl2",0.2-0.8 μg m1^−1
same,MIC,"[12]; S. aureus USA300, acquired resistance β-lactams, 15 mM CaCl2",0.2-0.8 μg m1^−1
same,MIC,"[12]; Staphylococcus aureus + 10% Serum, USA300",0.2 to 0.8 µg/mL
same,MIC,"[12]; Staphylococcus aureus USA300, β-lactams (Methicillin, Oxacillin, Penicillin)",0.2 to 0.8 µg/mL
same,MIC,"[13]; L. rhamnosus, 15 mM CaCl2",0.1-0.2 μg m1^−1
same,MIC,[13]; Lactobacillus rhamnosus NCTC 13031,0.1 to 0.2 µg/mL
same,MIC,"[14]; S. aureus NRS146, vancomycin (VISA), 15 mM CaCl2",0.4-0.8 μg m1^−1
same,MIC,"[14]; Staphylococcus aureus NRS146, Vancomycin (VISA)",0.4 to 0.8 µg/mL
